Measurements taken from patent US20260226049A1, “NITROGEN-CONTAINING HETEROCYCLIC COMPOUND, PREPARATION METHOD THEREFOR, AND USE THEREOF” (BIVISION PHARMACEUTICALS, INC, priority 2023, published 2026).
Each block holds one compound with its values, some of them ahead of it.

Tests used:
[1] = test system: HT1080 cell line with high FAP expression; assay: Therapeutic experiment of ^177Lu-labeled compounds in tumor-bearing mice; assay type: in vivo, Balb/c Nude mice; settings: ^177Lu-labeled compound
Description: Balb/c Nude tumor-bearing mice (supplier: Shanghai Alamo Pharmaceutical Technology Co., Ltd., HT1080 cell line with high FAP expression) aged approximately 6-8 weeks were randomly assigned to 13 experimental groups based on tumor volume, with 5 mice per group. Animal body weight and tumor size were measured, and administration was initiated on the grouping day starting with Group 1 (control group: normal saline). General health and appearance were observed daily after the start of the experiment. Animal body weight and tumor size were measured before each sample collection time point. Any abnormal observations detected during the entire study period were required to be recorded in the raw data.
The synthesized compounds were labeled with ^177Lu and subsequently utilized in the therapeutic assay on mouse tumor models. […] Furthermore, no significant changes in mouse body weight (FIG. 8) were observed throughout the experimental period.
• TGI^TV: Relative tumor inhibition rate (TGI^TV): TGI^TV (%)=[1−(Ti−T0)/(Vi−V0)]×100%; • (Ti: average tumor volume of the treatment group on day i of administration, TO: average tumor volume of the treatment group on day 0 of administration; Vi: average tumor volume of the solvent control group on day i of administration, V0: average tumor volume of the solvent control group on day 0 of administration) • T/C: T/C % is one of the most commonly used indicators for tumor response to treatment: T/C %=T/C*100%; • (T represents the average tumor volume of the treatment group at a specific time point; C represents the average tumor volume of the control group at a specific time point.)
The differences between the treatment groups (tumor volumes of the second, third, fourth, and fifth groups) and the control group (tumor volume of the first group) and between the tumor volumes of the first, third, fourth, and fifth groups and the tumor volume of the second group were analyzed using the two-way ANOVA Fisher's LSD test method. P-values less than 0.05 were considered statistically significant. Both statistical significance and biological significance were taken into account during the result analysis.

[2] = test system: HT1080 cell line with high FAP expression; assay: ^68Ga labeling and animal imaging assay (PET/CT) in tumor-bearing mice; assay type: in vivo; set-up: Imaging data, Muscle / Imaging data, Bone / Imaging data, Bladder / Imaging data, Tumor / Imaging data, Intestine / Imaging data, Brain / Imaging data, Heart / Imaging data, Liver / Imaging data, Lung / Imaging data, Kidney: unit not given here
Description: A. 1.0 mg of JHH7 precursor was weighed and dissolved in 0.1 M sodium acetate buffer to prepare a 1.0 mg/mL precursor solution.
B. The Ge/Ga generator was eluted stepwise with 5 mL of 0.1 M HCl, and the highest activity fraction (0.5 mL) was collected. 0.5 mL of metal-free 0.1 M sodium acetate buffer (pH=4.5) was added. In a 1.5 mL centrifuge tube as the reaction tube, a specific amount of precursor [1000 (molecular weight)/14.94 μL (precursor solution)/mCi (radionuclide)] was added, vortex-mixed for 10 s, and heated at 95° C., 800 rpm for 15 min.
C. The C18 Sep-Pak was activated with anhydrous ethanol, rinsed thoroughly with pure water, and the excess water was removed.
D. The solution after the reaction was passed through the C18 Sep-Pak, rinsed with pure water, and the excess water was removed. Subsequently, the C18 Sep-Pak was eluted with ethanol, collecting approximately 10 tubes with 3 drops per tube.
E. The final preparation should be a clear solution, prepared fresh for immediate use and limited to the same day.
1) The PET/CT was powered on according to the standard operating procedures, the scanning software was launched, and daily calibration was performed.
2) Animal anesthesia preparation was conducted, where tumor-bearing mice (supplied by Shanghai Alamo Pharmaceutical Technology Co., Ltd., HT1080 cell line with high FAP expression) were anesthetized using isoflurane.
3) After the loss of righting reflex in the tumor-bearing mice, the imaging agent was injected via the tail vein.
4) After drug administration, dynamic scanning at 1 hour and static scanning was performed at 3 hours were performed for 10 minutes.
5) During the process, animal body weight, injection dose, injection time, and residual dose were recorded according to the record sheet, and the time of measuring the injection dose and the time of measuring the residual dose were separately recorded.
6) The uptake in animal tumors, muscles, and other organs was analyzed using PMOD software.
^68Ga-labeled compounds JHH7 and JHH11 were imaged in tumor-bearing mice, and the results are shown in FIG. 5 and FIG. 6, with the imaging data shown in Tables 4 and 5.

Structure (SMILES): N#C[C@@H]1CC(F)(F)CN1C(=O)CNC(=O)c1cccc2c1CCCC2C(=O)CCC(=O)NCCNC(=O)CCNC(=O)CN1CCN(CC(=O)O)CCN(CC(=O)O)CCN(CC(=O)O)CC1 (some centres unmarked) [JHH14]
- therapeutic effects in mouse tumor model [1]: dose-dependent therapeutic effects

- Imaging data, Bladder ([2]; 5 min): 3.02
- Imaging data, Bone ([2]; 5 min): 0.17
- Imaging data, Brain ([2]; 5 min): 0.90
- Imaging data, Heart ([2]; 5 min): 4.61
- Imaging data, Intestine ([2]; 5 min): 0.47
- Imaging data, Kidney ([2]; 5 min): 6.73
- Imaging data, Liver ([2]; 5 min): 1.71
- Imaging data, Lung ([2]; 5 min): 1.78
- Imaging data, Muscle ([2]; 5 min): 0.81
- Imaging data, Tumor ([2]; 5 min): 0.91
- Imaging data, Bladder ([2]; 10 min): 49.75
- Imaging data, Bone ([2]; 10 min): 0.28
- Imaging data, Brain ([2]; 10 min): 0.82
- Imaging data, Heart ([2]; 10 min): 2.19
- Imaging data, Intestine ([2]; 10 min): 0.21
- Imaging data, Kidney ([2]; 10 min): 5.59
- Imaging data, Liver ([2]; 10 min): 0.88
- Imaging data, Lung ([2]; 10 min): 0.94
- Imaging data, Muscle ([2]; 10 min): 1.56
- Imaging data, Tumor ([2]; 10 min): 2.47
- Imaging data, Bladder ([2]; 15 min): 84.10
- Imaging data, Bone ([2]; 15 min): 0.30
- Imaging data, Brain ([2]; 15 min): 0.59
- Imaging data, Heart ([2]; 15 min): 1.43
- Imaging data, Intestine ([2]; 15 min): 0.23
- Imaging data, Kidney ([2]; 15 min): 3.87
- Imaging data, Liver ([2]; 15 min): 0.50
- Imaging data, Lung ([2]; 15 min): 0.79
- Imaging data, Muscle ([2]; 15 min): 1.42
- Imaging data, Tumor ([2]; 15 min): 3.36
- Imaging data, Bladder ([2]; 20 min): 109.69
- Imaging data, Bone ([2]; 20 min): 0.18
- Imaging data, Brain ([2]; 20 min): 0.55
- Imaging data, Heart ([2]; 20 min): 1.01
- Imaging data, Intestine ([2]; 20 min): 0.22
- Imaging data, Kidney ([2]; 20 min): 3.35
- Imaging data, Liver ([2]; 20 min): 0.38
- Imaging data, Lung ([2]; 20 min): 0.45
- Imaging data, Muscle ([2]; 20 min): 1.30
- Imaging data, Tumor ([2]; 20 min): 3.88
- Imaging data, Bladder ([2]; 25 min): 145.55
- Imaging data, Bone ([2]; 25 min): 0.17
- Imaging data, Brain ([2]; 25 min): 0.48
- Imaging data, Heart ([2]; 25 min): 0.94
- Imaging data, Intestine ([2]; 25 min): 0.15
- Imaging data, Kidney ([2]; 25 min): 2.74
- Imaging data, Liver ([2]; 25 min): 0.23
- Imaging data, Lung ([2]; 25 min): 0.28
- Imaging data, Muscle ([2]; 25 min): 1.29
- Imaging data, Tumor ([2]; 25 min): 4.70
- Imaging data, Bladder ([2]; 30 min): 157.22
- Imaging data, Bone ([2]; 30 min): 0.10
- Imaging data, Brain ([2]; 30 min): 0.46
- Imaging data, Heart ([2]; 30 min): 0.72
- Imaging data, Intestine ([2]; 30 min): 0.16
- Imaging data, Kidney ([2]; 30 min): 2.88
- Imaging data, Liver ([2]; 30 min): 0.25
- Imaging data, Lung ([2]; 30 min): 0.37
- Imaging data, Muscle ([2]; 30 min): 0.97
- Imaging data, Tumor ([2]; 30 min): 5.00
- Imaging data, Bladder ([2]; 1.5 h): 89.40
- Imaging data, Bone ([2]; 1.5 h): 0.53
- Imaging data, Brain ([2]; 1.5 h): 0.23
- Imaging data, Heart ([2]; 1.5 h): 0.45
- Imaging data, Intestine ([2]; 1.5 h): 0.92
- Imaging data, Kidney ([2]; 1.5 h): 0.71
- Imaging data, Liver ([2]; 1.5 h): 0.52
- Imaging data, Lung ([2]; 1.5 h): 0.54
- Imaging data, Muscle ([2]; 1.5 h): 0.17
- Imaging data, Tumor ([2]; 1.5 h): 6.40
- Imaging data, Bladder ([2]; 3 h): 7.50
- Imaging data, Bone ([2]; 3 h): 0.14
- Imaging data, Brain ([2]; 3 h): 0.12
- Imaging data, Heart ([2]; 3 h): 0.21
- Imaging data, Intestine ([2]; 3 h): 0.60
- Imaging data, Kidney ([2]; 3 h): 0.55
- Imaging data, Liver ([2]; 3 h): 0.43
- Imaging data, Lung ([2]; 3 h): 0.55
- Imaging data, Muscle ([2]; 3 h): 0.19
- Imaging data, Tumor ([2]; 3 h): 5.20
- time of peak uptake in the tumor after injection ([2]; tumor-bearing mice, intravenous injection): 1.5 h
Structure (SMILES): N#C[C@@H]1CC(F)(F)CN1C(=O)CNC(=O)c1ccc2c(c1)CN(C(=O)CCC(=O)NCCNC(=O)CCC(C(=O)O)N1CCN(CC(=O)[O-])CCN(CC(=O)[O-])CCN(CC(=O)[O-])CC1)C2.[68Ga+3] (some centres unmarked) [^68Ga-JHH7]
- uptake in the tumor at 3 hours ([2]; 3 hours after injection): a certain amount of uptake in the tumor was still observed
